Source: US7163923B2, “Peptide deformylase activated prodrugs” (Celmed Oncology (USA), Inc., priority 2001, dated 2007)
In brackets after ≈: the same amount, converted by molar mass.

Experiments:
S. aureus [1] = assay: MIC susceptibility testing (modified NCCLS, 384-well); format: cell-based; details: Staphylococcus aureus
Description: The NCCLS (National Committee for Clinical Laboratory Standards), method to determine MIC's of antimicrobial compounds is modified for high-throughput screening. All stocks of tested compounds are prepared in either water or in DMSO depending on solubility. At the highest concentration, DMSO content should not exceed 0.5%. Briefly, twenty 2-fold serial dilutions of test compounds from the highest concentration are made in a 384-well microtiter plate. Each well is inoculated with testing bacteria in broth to a final concentration of approximately 1–1.5×10^6 cells/ml. Bacterial growth is determined by the increase of optical density at 600 nm using a microplate reader (Tecan SpectraFluor Plus). The MIC is defined as the lowest concentration at which bacterial growth (equivalent to visible growth) was inhibited after 16 to 18 hours of incubation at the appropriate temperature required for the bacteria growth.
Using the assay provided above, the potency of NB2046 was compared to triclosan.

[2] = Stability in PBS, HEPES buffer and Mueller Hinton broth; format: physicochemical
Description: (§1) Stability of PDF ECTA compounds was determined in different media: PBS, pH 7.4 (Gibco Life Technologies), 50 mM HEPES buffer (Sigma), pH 7.5, Mueller Hinton broth (Becton Dickinson), mouse and human plasma (Sigma). Dependence of a compound concentration on time was fit to an exponential equation c=co×exp(−k×t)} where c is the running concentration of the compound, co is its initial concentration and t is time. The compound half-life was determined as t1/2=0.693/k.

P. aeruginosa = assay: MIC susceptibility testing (NCCLS, 96-well); format: cell-based; details: P. aeruginosa ATCC 27853, 18 hours at 35° C.
Description: (§2) The NCCLS (National Committee for Clinical Laboratory Standards) method was used to determine MIC's of antimicrobial compounds. All stocks of tested compounds were prepared in either water or DMSO based on the solubility. At the highest concentration of the tested compound DMSO content should not exceed 0.5%. Briefly 2-fold serial dilutions of test compounds from the highest concentration were made in a 96-well microtiter plate. Each well was inoculated with testing bacteria in broth to a final concentration of approximately 5×10^5 CFU/ml. Bacterial growth was monitored by the increase of optical density at 600 nm using a microplate reader (Tecan SpectraFluor Plus). The MIC was defined as the lowest concentration at which bacteria growth (equivalent to visible growth) was inhibited after 18 hours of incubation at 35° C.

E. faecalis = assay: MIC susceptibility testing (NCCLS, 96-well); format: cell-based; details: E. faecalis ATCC 29212, 18 hours at 35° C.
Description: as §2

S. aureus [3] = assay: MIC susceptibility testing (NCCLS, 96-well); format: cell-based
Description: as §2

E. coli = assay: MIC susceptibility testing (NCCLS, 96-well); format: cell-based; details: E. coli ATCC 25922, 18 hours at 35° C.
Description: as §2

[4] = Stability in mouse plasma; format: in vitro ADME
Description: as §1

[5] = Stability in human plasma; format: in vitro ADME
Description: as §1

purified PDF = biological target: T1, purified PDF (Escherichia coli, UniProt P0A6K3); assay: Cell-free reaction catalyzed by purified PDF (HPLC, Michaelis-Menten); format: biochemical, E. coli; details: different concentrations of actinonin, FIG. 5
T1 construct: made in house; host or cells: PDF-overexpressing E. coli
T1 sequence (P0A6K3 1-169): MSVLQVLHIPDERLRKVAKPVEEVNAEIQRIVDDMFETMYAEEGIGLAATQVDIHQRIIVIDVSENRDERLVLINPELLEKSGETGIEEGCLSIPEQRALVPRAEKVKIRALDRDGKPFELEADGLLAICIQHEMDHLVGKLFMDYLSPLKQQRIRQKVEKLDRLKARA
Description: (§3) In a seperate experiment, cell-free reaction of PDF ECTA compounds has been studied using PDF purified from PDF-overexpressing E. coli following a procedure described in Ragusa S., et al. (2000) and Wei, et al. (2000b). NB3068 conversion was used as an example of a PDF ECTA reaction catalyzed by purified PDF. It was carried out in 50 mM HEPES buffer, pH 7.5 at room temperature. NB3068 concentrations were in the range of 2–250 μM, and the concentration of the enzyme in the reaction mixture was 25 nM. The conversion was monitored by direct injection of the reaction mixture onto an HPLC column (Adsorbosphere HS, C18, 5 μm, 4.6 mm×150 mm, Alltech). […] Kinetic parameters of the reaction were determined fitting the data to the Michaelis-Menten equation.
(§4) To confirm the role of PDF in catalyzing NB3068 transformation the rate of the reaction at different enzyme concentrations was determined (FIGS. 3 and 4). As can been seen the rate of the reaction is proportional to the enzyme concentration.

[6] = substrate: CCn1cc(C(=O)O)c(=O)c2cc(F)c(N3CCN(C(=O)OCc4ccc(OC(=O)[C@H](CC(C)C)NC(=O)[C@H](CCSC)NC=O)cc4)CC3)cc21; assay: as above; format: biochemical, E. coli; details: other: PDF 25 nM, 50 mM HEPES pH 7.5, room temperature, substrate 2–250 μM
Description: as §3, §4

[7] = 50 mM HEPES buffer, pH 7.5, 6 hours
[8] = 50 mM HEPES buffer, pH 7.5, read-out: t1/2 HEPES
[9] = S. aureus (MS) ATCC 29213, 18 hours at 35° C.
[10] = Mueller Hinton broth, read-out: t1/2 Broth
[11] = PBS, pH 7.4, read-out: t1/2 PBS

`Oc1cc(Cl)ccc1Oc1ccc(Cl)cc1Cl` [Triclosan, reference compound] gave an MIC (S. aureus [1]; ATCC 11632 / MSSA) of 0.00195 µg/mL (≈ 0.00675 µM), an MIC (S. aureus [1]; ATCC 13301 / MSSA) of 0.000488 µg/mL (≈ 0.00169 µM) and an MIC (S. aureus [1]; ATCC 14154 / MSSA) of 0.00195 µg/mL (≈ 0.00675 µM). The MIC (S. aureus [1]; ATCC 33591 / MSSA) was 0.00781 µg/mL (≈ 0.027 µM), the MIC (S. aureus [1]; ATCC 33592 / MSSA) was 0.00391 µg/mL (≈ 0.0135 µM) and the MIC (S. aureus [1]; ATCC 33593 / MSSA) was 0.000977 µg/mL (≈ 0.00337 µM). It also gave an MIC (S. aureus [1]; ATCC 43300 / MSSA) of 0.00195 µg/mL (≈ 0.00675 µM), an MIC (S. aureus [1]; ATCC 700260 / MSSA) of 0.000244 µg/mL (≈ 0.000843 µM) and an MIC (S. aureus [1]; ATCC 700698 / MSSA) of 0.00391 µg/mL (≈ 0.0135 µM). For the same molecule, the MIC (S. aureus [1]; ATCC 700699 / MSSA) was at least 4 µg/mL, the MIC (S. aureus [1]; ATCC 700787 / MSSA) was 0.00195 µg/mL (≈ 0.00675 µM) and the MIC (S. aureus [1]; ATCC 700788 / MSSA) was 0.0312 µg/mL (≈ 0.108 µM). It also gave an MIC (S. aureus [1]; ATCC 700789 / MSSA) of 0.0156 µg/mL (≈ 0.054 µM).

With `CSCC[C@H](NC=O)C(=O)N[C@@H](CC(C)C)C(=O)Oc1ccc(COC(=O)N(CCCl)CCCl)cc1` [NB3103, 2-(2-Formylamino-4-methylsulfanyl-butyrylamino)-4-methyl-pentanoic acid 4-{[bis-(2-chloro-ethyl)-carbamoyloxy]-methyl}-phenyl ester] the “percent of the compound remaining after 6 hours, HEPES” value [2, 7] was “(95%)”, the half-life [2, 8] was over 12 h and the “percent of the compound remaining after 6 hours, Broth” value ([2]; Mueller Hinton broth, 6 hours) was “(95%)”. The “percent of the compound remaining after 6 hours, PBS” value ([2]; PBS, pH 7.4, 6 hours) was “(96%)”, the half-life ([2]; buffer, Mueller Hinton broth, read-out: t1/2 Broth) was over 12 h and the half-life ([2]; buffer, PBS, pH 7.4, read-out: t1/2 PBS) was over 12 h. It also gave an MIC (P. aeruginosa) of over 128 µg/mL, an MIC (E. faecalis) of over 128 µg/mL and an MIC (S. aureus [3]; [9]) of over 128 µg/mL. The MIC (E. coli) was over 128 µg/mL.

In the case of “1-Cyclopropyl-6-fluoro-4-oxo-7-piperazin-1-yl-1,4-dihydro-quinoline-3-carboxylic acid 4-[2-(2-formylamino-4-methylsulfanyl-butyrylamino)-4-methyl-pentanoyloxy]-benzylester [NB3057]”, the “t1/2 Broth” value ([2]; buffer) is reported as 10 h, the “percent of the compound remaining after 6 hours, PBS” value ([2]; buffer, 6 h, pH 7.4) is reported as “(82%)” and the “t1/2 PBS” value ([2]; buffer, pH 7.4) is reported as over 12 h. The “t1/2 HEPES” value ([2]; buffer, pH 7.5) was over 12 h, the “t1/2 Mouse Plasma” value [4] was 1.4 min and the “t1/2 Human Plasma” value [5] was under 30 s. It also gave an MIC (P. aeruginosa) of 2 µg/mL, an MIC (E. faecalis) of 4 µg/mL and an MIC (S. aureus [3]; S. aureus (MR) ATCC 33591, 18 hours at 35° C.) of 0.5 µg/mL. The MIC (S. aureus [3]; [9]) was 0.125 µg/mL and the MIC (E. coli) was 0.0625 µg/mL.

In the case of `CCCCC[C@H](CC(=O)NO)C(=O)N[C@H](C(=O)N1CCC[C@H]1CO)C(C)C` [actinonin], the “Effect on NB3068 reaction catalyzed by purified PDF” value (purified PDF) is reported as “slows down the reaction in dose dependent manner”.

With `CCn1cc(C(=O)O)c(=O)c2cc(F)c(N3CCN(C(=O)OCc4ccc(OC(=O)[C@H](CC(C)C)NC(=O)[C@H](CCSC)NC=O)cc4)CC3)cc21` [NB3068, 1-Ethyl-6-fluoro-7-(4-{4-[2-(2-formylamino-4-methylsulfanyl-butyrylamino)-4-methyl-pentanoyloxy]-benzyloxycarbonyl}-piperazin-1yl)-4-oxo-1,4-dihydro-qiuinoline-3-carboxylic acid] the “percent of the compound remaining after 6 hours, HEPES” value [2, 7] was “(70%)”, the half-life [2, 8] was over 12 h and the “percent of the compound remaining after 6 hours, Broth” value ([2]; Mueller Hinton broth, 6 hours) was “(70%)”. For the same molecule, the half-life [2, 10] was over 12 h, the “percent of the compound remaining after 6 hours, PBS” value ([2]; PBS, pH 7.4, 6 hours) was “(75%)” and the half-life [2, 11] was over 12 h. The half-life ([4]; read-out: t1/2 Mouse Plasma) was 36 s, the half-life ([5]; read-out: t1/2 Human Plasma) was 4.1 min and the MIC (P. aeruginosa) was 0.5 µg/mL (≈ 0.674 µM). It also gave an MIC (E. faecalis) of 2 µg/mL (≈ 2.7 µM), an MIC (S. aureus [3]; [9]) of 2 µg/mL (≈ 2.7 µM) and an MIC (E. coli) of under 0.004 µg/mL.

With `CSCC[C@H](NC=O)C(=O)N[C@@H](CC(C)C)C(=O)Oc1ccc(CSc2cccc[n+]2[O-])cc1` [NB3024] the “percent of the compound remaining after 6 hours, HEPES” value [2, 7] was “(88%)”, the half-life [2, 8] was over 12 h and the “percent of the compound remaining after 6 hours, Broth” value ([2]; Mueller Hinton broth, 6 hours) was “(82%)”. The half-life [2, 10] was over 12 h, the “percent of the compound remaining after 6 hours, PBS” value ([2]; PBS, pH 7.4, 6 hours) was “(81%)” and the half-life [2, 11] was over 12 h. For the same molecule, the MIC (P. aeruginosa) was 128 µg/mL (≈ 253 µM), the MIC (E. faecalis) was 32 µg/mL (≈ 63.3 µM) and the MIC (S. aureus [3]; [9]) was 8 µg/mL (≈ 15.8 µM). For the same molecule, the MIC (E. coli) was 16 µg/mL (≈ 31.6 µM).

B1: purified PDF (Escherichia coli K-12) (protein)
chain: T1 sequence (P0A6K3 1-169)
notes: made in house; host or cells: PDF-overexpressing E. coli
B1 gave a Km [6] of 125 ± 17 µM, a kcat [6] of 2.07 ± 0.14 s⁻¹ and a kcat/Km [6] of 17000 M⁻¹ s⁻¹.
